Measured values from US4267185A, “Antidepressant pyrrolylpiperidines, their pharmaceutical compositions and method of use” (E. I. Du Pont de Nemours and Company, priority 1980, dated 1981).
Like-named read-outs stand apart in the source and are kept apart here.

System: tetrabenazine-induced sedation and depression in mice
Test: Antagonism of tetrabenazine-induced depression in mice, orally, at 1 hour post-drug
Format: in vivo, female white mice (Carworth CF1 S)
Details: Mus musculus
Protocol: This mouse test is predictive of human antidepressant response (Everett, "The Dopa Response Potentiation Test and Its Use in Screening for Antidepressant Drugs," pp. 164 in "Antidepressant Drugs" (Proceedings of the First International Symposium), S. Garattini and M. N. G. Dukes, eds., 1967).
Groups of 10 Carworth CF1 S female mice, 18-21 g each, were fasted 1.5 hours and were intubated with antagonist compounds at oral doses of 0, 0.33, 1, 3, 9, 27, and 81 mg/kg in 0.20 ml of 1% Methocel-1.25% Tween 80. The mice were challenged 30 minutes later with tetrabenazine (as the methanesulfonate), 32 mg/kg intraperitoneally (dissolved in 0.20 ml 0.05 M KCl at pH 2.0). One hour after antagonist (30 minutes after tetrabenazine), the mice were examined for signs of exploratory activity and ptosis (eyelid closure). Normal exploratory activity (relief from sedation) was recorded when a mouse lifted by the tail from a group of 10 in a testing box and placed on a stainless testing box lid (12.5"×8"with 0.33" mesh) either turned its head horizontally 30° in both directions or moved to the edge of the screen within 10 seconds after being placed on the screen. Relief from ptosis was recorded when exactly two seconds after placing the mouse facing the observer, lid closure was less than 50% in both eyes.

[1] = po, 1 h, read-out: ED50 for prevention of exploratory loss
[2] = po, 1 h, read-out: ED50 for prevention of ptosis

`CN1CCC(O)(c2cccn2C)CC1` [Example 1, 1-Methyl-4-(1-methylpyrrol-2-yl)-4-piperidinol] showed an ED50 [1] of 1.8 mg/kg and an ED50 [2] of 1.1 mg/kg.

Compound `CN(C)CCC=C1c2ccccc2CCc2ccccc21` [Amitriptyline, reference compound] has an ED50 (oral, 1 hour post-drug (30 min after tetrabenazine 32 mg/kg i.p.), exploratory activity, read-out: ED50 for prevention of exploratory loss) of 3.5 mg/kg and an ED50 (oral, 1 hour post-drug (30 min after tetrabenazine 32 mg/kg i.p.), lid closure less than 50% in both eyes, read-out: ED50 for prevention of ptosis) of 1.4 mg/kg.

Work on `CN1CC=C(c2cccn2C)CC1.Cl` [Example 2, 1,2,3,6-Tetrahydro-1-methyl-4-(1-methylpyrrol-2-yl)pyridine, hydrochloride salt] yielded an ED50 [1] of 1.4 mg/kg and an ED50 [2] of 0.8 mg/kg.
